In brackets after ≈: the same amount, converted by molar mass. Counter-ions that a name gives are not always drawn.
What was measured:
[1] = tested on: Mycobacterium tuberculosis; experiment: Antitubercular activity against Mycobacterium tuberculosis; assay type: functional
[2] = tested on: Mycobacterium tuberculosis; experiment: microbe, parasite or virus in culture; settings: isolate 778/10, 168 h
Description: Antitubercular activity against Mycobacterium tuberculosis isolate 778/10 after 7 days by REMA resazurin microtiter assay

Mycobacterium avium = assay type: functional; settings: 168 h
[3] = tested on: Mycobacterium tuberculosis; assay type: functional; settings: H37Ra, 168 h
[4] = tested on: Mycobacterium tuberculosis; experiment: microbe, parasite or virus in culture; settings: isolate 29/10, 168 h
Description: Antitubercular activity against Mycobacterium tuberculosis isolate 29/10 after 7 days by REMA resazurin microtiter assay

[5] = tested on: Mycobacterium tuberculosis; experiment: microbe, parasite or virus in culture; settings: isolate 439/11, 168 h
Description: Antitubercular activity against Mycobacterium tuberculosis isolate 439/11 after 7 days by REMA resazurin microtiter assay

[6] = tested on: Mycobacterium tuberculosis; experiment: microbe, parasite or virus in culture; settings: isolate 917/10, 168 h
Description: Antitubercular activity against Mycobacterium tuberculosis isolate 917/10 after 7 days by REMA resazurin microtiter assay

[7] = tested on: Mycobacterium tuberculosis; experiment: microbe, parasite or virus in culture; settings: H37Rv, 168 h
Description: Antitubercular activity against Mycobacterium tuberculosis H37Rv after 7 days by REMA resazurin microtiter assay

[8] = tested on: Mycobacterium tuberculosis; experiment: microbe, parasite or virus in culture; settings: isolate 756/10, 168 h
Description: Antitubercular activity against Mycobacterium tuberculosis isolate 756/10 after 7 days by REMA resazurin microtiter assay

[9] = Lipophilicity, logD of the compound at pH 7.4; assay type: physicochemical; settings: buffer
[10] = Cytotoxicity against human HMEC1 cells assessed as reduction in cell viability after 72 hrs by MTT method; assay type: cell-based, HMEC-1
in vitro [11] = settings: human, HMEC1 cells
Description: Selectivity index, ratio of CC50 for human HMEC1 cells to MIC for Mycobacterium tuberculosis H37Rv

in vitro [12] = settings: monkey, Vero 76 cells
Description: Selectivity index, ratio of CC50 for african green monkey Vero 76 cells to MIC for Mycobacterium tuberculosis H37Rv

[13] = Cytotoxicity against human MT4 cells assessed as reduction in cell viability after 96 hrs by MTT method; assay type: cell-based
in vitro [14] = settings: human, MT4 cells
Description: Selectivity index, ratio of CC50 for human MT4 cells to MIC for Mycobacterium tuberculosis H37Rv

[15] = Cytotoxicity against african green monkey Vero 76 cells assessed as reduction in cell viability after 48 to 96 hrs by MTT method; assay type: cell-based; settings: chlorocebus sabaeus
[16] = Half life in human; assay type: ADME, organism-based; settings: in vivo

SMILES | MIC [2] [µM] | MIC (Mycobacterium avium) | MIC [3] [µM] | MIC [4] [µM] | MIC [5] [µM] | MIC [6] | MIC [7] [µM] | MIC [8] | CC50 at 72 h [10] [µM] | selectivity ratio (in vitro [11]) | also measured
C(=C1c2ccccc2-c2ccccc21)[C@@H]1CCCN2CCCC[C@H]12 |  |  |  |  |  |  |  |  |  |  | MIC [1]: 0.156 µg/mL (≈ 0.495 µM)
Cc1ccc(NC[C@@H]2CCCN3CCCC[C@H]23)c2c(=O)c3ccccc3sc12 |  |  |  |  |  |  |  |  |  |  | MIC [1]: 1.25 µg/mL (≈ 3.18 µM)
c1ccc(Nc2cc3nc4ccccc4n(-c4ccccc4)c-3c/c2=N/CCC23CCCN2CCC3)cc1 [listing 1 of 2 here] | 1.76 (≈ 0.879 µg/mL) | 28.1 µM | 3.52 (≈ 1.76 µg/mL) | 0.88 (≈ 0.44 µg/mL) | 0.88 (≈ 0.44 µg/mL) | 7.04 µM | 0.88 (≈ 0.44 µg/mL) | 28.1 µM |  |  | 
Cl.Clc1ccc(Nc2cc3nc4ccccc4n(-c4ccc(Cl)cc4)c-3c/c2=N/CCC23CCCN2CCC3)cc1 | 12.5 | > 16 µg/mL | 26 | 0.78 | 6.25 | > 16 µg/mL | > 16 | > 16 µg/mL |  |  | 
c1ccc(Nc2cc3nc4ccccc4n(-c4ccccc4)c-3c/c2=N/C[C@@H]2CCCN3CCCC[C@H]23)cc1 |  |  | 15.6 (≈ 8.01 µg/mL) |  |  |  | 15.6 (≈ 8.01 µg/mL) |  |  |  | 
Clc1ccc(Nc2cc3nc4ccccc4n(-c4ccc(Cl)cc4)c-3c/c2=N/C[C@@H]2CCCN3CCCC[C@H]23)cc1 | 0.86 (≈ 0.501 µg/mL) | 6.87 µM |  | 0.86 (≈ 0.501 µg/mL) | 0.86 (≈ 0.501 µg/mL) | 0.86 µM | 0.86 (≈ 0.501 µg/mL) | 0.86 µM | 4.7 | 5.46 | logD ([9]; read-out: logD): 5.54; selectivity ratio (in vitro [12]): 79.1; CC50 at 96 h [13]: 4.5 µM; selectivity ratio (in vitro [14]): 5.23; CC50 [15]: 68 µM
c1ccc(Nc2cc3nc4ccccc4n(-c4ccccc4)c-3c/c2=N/CC[C@@H]2CCCN3CCCC[C@H]23)cc1 | 1.89 (≈ 0.997 µg/mL) | 15.2 µM | 3.79 (≈ 2 µg/mL) | 1.89 (≈ 0.997 µg/mL) |  | 1.89 µM | 7.58 (≈ 4 µg/mL) |  |  |  | 
c1ccc(Nc2cc3nc4ccccc4n(-c4ccccc4)c-3c/c2=N/CCC[C@@H]2CCCN3CCCC[C@H]23)cc1 |  |  | 7.38 (≈ 4 µg/mL) |  |  |  | 7.38 (≈ 4 µg/mL) |  | 8.3 | 1.12 | selectivity ratio (in vitro [12]): 4.88; CC50 at 96 h [13]: 1.6 µM; selectivity ratio (in vitro [14]): 0.22; CC50 [15]: 36 µM
c1ccc(Nc2cc3nc4ccccc4n(-c4ccccc4)c-3c/c2=N/C[C@H]2CCCN3CCCC[C@H]23)cc1 | 1.95 (≈ 1 µg/mL) | > 16 µg/mL | 3.89 (≈ 2 µg/mL) | 1.95 (≈ 1 µg/mL) |  | 1.95 µM | 7.79 (≈ 4 µg/mL) |  |  |  | 
Cc1ccc(Nc2cc3nc4ccccc4n(-c4ccc(C)cc4)c-3c/c2=N/C[C@@H]2CCCN3CCCC[C@H]23)cc1.Cl | 6.5 | 26 µM | 26 | 0.81 | 3.25 | 26 µM | 6.5 | > 16 µg/mL |  |  | 
Clc1cccc(C(C[C@@H]2CCCN3CCCC[C@H]23)c2ccccc2)c1 (stereo partly specified) |  |  |  |  |  |  |  |  |  |  | MIC [1]: ≤ 0.1 µg/mL
OC(C[C@@H]1CCCN2CCCC[C@H]12)(c1ccccc1)c1ccc(-c2ccccc2)cc1 (stereo partly specified) |  |  |  |  |  |  |  |  |  |  | MIC [1]: ≤ 1 µg/mL
FC(F)(F)c1cccc(NC[C@@H]2CCCN3CCCC[C@H]23)c1 |  |  |  |  |  |  |  |  |  |  | MIC [1]: 2.5 µg/mL (≈ 8 µM)
Cc1c(N)ccc(NC[C@@H]2CCCN3CCCC[C@H]23)c1C |  |  |  |  |  |  |  |  |  |  | MIC [1]: ≤ 0.5 µg/mL
Clc1ccc(Nc2cc3nc4ccccc4n(-c4ccc(Cl)cc4)c-3c/c2=N/CC[C@@H]2CCCN3CCCC[C@H]23)cc1 | 0.84 (≈ 0.501 µg/mL) | 3.35 µM |  | 0.84 (≈ 0.501 µg/mL) | 0.84 (≈ 0.501 µg/mL) | 0.84 µM | 0.84 (≈ 0.501 µg/mL) | 0.84 µM | 2.5 | 2.98 | logD ([9]; read-out: logD): 5.52; selectivity ratio (in vitro [12]): 10.7; CC50 at 96 h [13]: 1.2 µM; selectivity ratio (in vitro [14]): 1.43; CC50 [15]: 9 µM
c1ccc(Nc2cc3nc4ccccc4n(-c4ccccc4)c-3c/c2=N/CC[C@H]2CCCN3CCCC[C@H]23)cc1 |  |  | 7.58 (≈ 4 µg/mL) |  |  |  | 7.58 (≈ 4 µg/mL) |  |  |  | 
c1ccc(Nc2cc3nc4ccccc4n(-c4ccccc4)c-3c/c2=N/CCC[C@H]2CCCN3CCCC[C@H]23)cc1 |  |  | 0.92 (≈ 0.498 µg/mL) |  |  |  | 7.38 (≈ 4 µg/mL) |  | 5.5 | 0.74 | selectivity ratio (in vitro [12]): 1.3; CC50 at 96 h [13]: 5.8 µM; selectivity ratio (in vitro [14]): 0.78; CC50 [15]: 9.6 µM
Clc1ccc(Nc2cc3nc4ccccc4n(-c4ccc(Cl)cc4)c-3c/c2=N/CC[C@H]2CCCN3CCCC[C@H]23)cc1 | 0.84 (≈ 0.501 µg/mL) | 3.35 µM |  | 0.84 (≈ 0.501 µg/mL) | 0.84 (≈ 0.501 µg/mL) | 0.84 µM | 0.84 (≈ 0.501 µg/mL) | 0.84 µM | 2.3 | 2.74 | selectivity ratio (in vitro [12]): 11.3; CC50 at 96 h [13]: 1.8 µM; selectivity ratio (in vitro [14]): 2.14; CC50 [15]: 9.5 µM
Clc1ccc(Nc2cc3nc4ccccc4n(-c4ccc(Cl)cc4)c-3c/c2=N/CCC[C@H]2CCCN3CCCC[C@H]23)cc1 | 0.82 (≈ 0.501 µg/mL) | 3.28 µM |  | 0.82 (≈ 0.501 µg/mL) | 0.82 (≈ 0.501 µg/mL) | 0.82 µM | 0.82 (≈ 0.501 µg/mL) | 0.82 µM | 3.1 | 3.78 | selectivity ratio (in vitro [12]): 11; CC50 at 96 h [13]: 1.5 µM; selectivity ratio (in vitro [14]): 1.83; CC50 [15]: 9 µM
Cc1ccc(Nc2cc3nc4ccccc4n(-c4ccc(C)cc4)c-3c/c2=N/C[C@@H]2CCCN3CCCC[C@H]23)cc1 |  |  |  |  |  |  |  |  | 2.6 | 0.4 | 
c1ccc(Nc2cc3nc4ccccc4n(-c4ccccc4)c-3c/c2=N/CCC23CCCN2CCC3)cc1 [listing 2 of 2 here] |  |  |  |  |  |  |  |  | 3.2 | 3.64 | 
Clc1ccc(Nc2cc3nc4ccccc4n(-c4ccc(Cl)cc4)c-3c/c2=N/CCC23CCCN2CCC3)cc1 |  |  |  |  |  |  |  |  | 1.5 | < 0.06 | 
CC(C)/N=c1\cc2n(-c3ccc(Cl)cc3)c3ccccc3nc-2cc1Nc1ccc(Cl)cc1 [CLOFAZIMINE] | 1.06 (≈ 0.502 µg/mL) | 4.23 µM |  | 1.06 (≈ 0.502 µg/mL) | 1.06 (≈ 0.502 µg/mL) | 1.06 µM | 1.06 (≈ 0.502 µg/mL) | 1.06 µM | 18.6 | 17.6 | logD [9]: 6.36; half-life [16]: 70 days; selectivity ratio (in vitro [12]): > 94; CC50 at 96 h [13]: 6.8 µM; selectivity ratio (in vitro [14]): 6.41; CC50 [15]: > 100 µM
CC[C@@H](CO)NCCN[C@@H](CC)CO [ETHAMBUTOL] | 7.21 (≈ 1.47 µg/mL) |  |  | 3.61 (≈ 0.738 µg/mL) | 1.8 (≈ 0.368 µg/mL) | 14.4 µM | 14.4 (≈ 2.95 µg/mL) | 14.4 µM |  |  | 
NNC(=O)c1ccncc1 [ISONIAZID] | 0.91 (≈ 0.125 µg/mL) |  |  | 0.91 (≈ 0.125 µg/mL) | 1.82 (≈ 0.25 µg/mL) | 1.82 µM | 1.82 (≈ 0.25 µg/mL) | 3.65 µM |  |  | 
CO[C@H]1/C=C/O[C@@]2(C)Oc3c(C)c(O)c4c(O)c(c(/C=N/N5CCN(C)CC5)c(O)c4c3C2=O)NC(=O)/C(C)=C\C=C\[C@H](C)[C@H](O)[C@@H](C)[C@@H](O)[C@@H](C)[C@H](OC(C)=O)[C@@H]1C [RIFAMPIN] | 0.15 (≈ 0.123 µg/mL) |  |  | 0.15 (≈ 0.123 µg/mL) | 0.08 (≈ 0.0658 µg/mL) | 0.61 µM | 0.3 (≈ 0.247 µg/mL) | 0.3 µM |  |  | 
CN[C@@H]1[C@H](O[C@H]2[C@H](O[C@H]3[C@H](O)[C@@H](O)[C@H](N=C(N)N)[C@@H](O)[C@@H]3N=C(N)N)O[C@@H](C)[C@]2(O)C=O)O[C@@H](CO)[C@H](O)[C@H]1O [STREPTOMYCIN SULFATE] | 0.34 |  |  | 0.69 | 0.17 | 0.69 µM | 0.69 | 0.69 µM |  |  | 
